From patent US20250353873A1, “COMPOUNDS AND METHODS FOR MODULATING APOE EXPRESSION” (Ionis Pharmaceuticals, Inc., priority 2024, published 2025)
pIC50: −log10 of the molar value. Strand notation (5' to 3'): a small letter for the sugar, then the base; units joined by * are phosphorothioate-linked, units joined directly phosphodiester-linked; [ ] holds rarer units or linkages, { } end groups; capitals alone tell only the bases. [ms] = mesyl phosphoramidate linkage; e = 2'-O-(2-methoxyethyl) (MOE); k = constrained ethyl (cEt); [5mC] = 5-methylcytosine; d = 2'-deoxy (DNA)

Key:
human APOE RNA [1] = assay: Activity in APOE C57BL/6NTac-Apoeem7250 knock-in mice, single ICV bolus, 20 weeks (Example 13); type: in vivo; settings: single ICV bolus 300 μg, 20 weeks post treatment, normalized to mouse Ppia
Outline: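 Knock-in mice (n=4) given a single ICV bolus of 300 μg oligonucleotide, PBS as control. After 20 weeks, human APOE RNA in cortex and spinal cord measured by RT-qPCR, normalized to mouse Ppia, expressed as % of PBS-treated animals.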

human APOE RNA [2] = assay: Dose-dependent inhibition of human APOE RNA in HepG2 cells, electroporation, 50,000 cells per well, RT-PCR normalized to GAPDH (Example 4, Tables 8-10); type: cell-based; settings: HepG2, electroporation, 16-hour treatment
Outline: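 HepG2 cells, 50,000 per well, electroporated with modified oligonucleotide at various concentrations. APOE RNA quantified by RT-PCR with human primer probe set RTS3073, normalized to GAPDH. Values are percent APOE RNA relative to untreated control cells.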

human APOE RNA [3] = assay: Activity in APOE C57BL/6NTac-Apoeem7250 knock-in mice, single ICV bolus, 4 weeks (Example 10); type: in vivo; settings: single ICV bolus 300 μg, 4 weeks post treatment, normalized to mouse Ppia
Outline: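 Knock-in mice (2–4 per group) received one 300 μg ICV bolus of oligonucleotide or PBS. After four weeks, human APOE RNA in cortex and spinal cord measured by RT-qPCR (primer probe set RTS3073), normalized to mouse Ppia, expressed as % of PBS controls.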

human APOE RNA [4] = assay: Activity in APOE C57BL/6NTac-Apoeem7250 knock-in mice, single ICV bolus, 8 weeks (Example 11); type: in vivo; settings: single ICV bolus 300 μg, 8 weeks post treatment, normalized to mouse Ppia
Outline: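 Human APOE knock-in C57BL/6NTac mice given one ICV bolus of 300 μg oligonucleotide; PBS-dosed group as control. At 8 weeks, cortex and spinal cord RNA measured by qRT-PCR (human probe RTS3073), normalized to mouse Ppia, expressed as % of PBS control.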

human APOE RNA [5] = assay: Activity in APOE C57BL/6NTac-Apoeem7250 knock-in mice, single ICV bolus, 16 weeks (Example 12); type: in vivo; settings: single ICV bolus 300 μg, 16 weeks post treatment, normalized to mouse Ppia
Outline: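 Knock-in mice (3-4 per group) received one ICV bolus of 300 μg oligonucleotide, PBS as control. After 16 weeks, human APOE RNA in cortex and spinal cord measured by RT-qPCR, normalized to mouse Ppia, and reported as % of PBS control.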

Substance | APOE RNA (% control) Cortex (human APOE RNA [1]) | APOE RNA (% control) Spinal Cord (human APOE RNA [1]) | APOE RNA (% UTC) (human APOE RNA [2]; 5 nM) | APOE RNA (% UTC) (human APOE RNA [2]; 13 nM) | APOE RNA (% UTC) (human APOE RNA [2]; 33 nM) | APOE RNA (% UTC) (human APOE RNA [2]; 82 nM) | APOE RNA (% UTC) (human APOE RNA [2]; 205 nM) | APOE RNA (% UTC) (human APOE RNA [2]; 512 nM) | APOE RNA (% UTC) (human APOE RNA [2]; 1,280 nM) | APOE RNA (% UTC) (human APOE RNA [2]; 3,200 nM) | APOE RNA (% UTC) (human APOE RNA [2]; 8,000 nM) | APOE RNA (% UTC) (human APOE RNA [2]; 20,000 nM) | pIC50 (human APOE RNA [2]) | APOE RNA (% control) Cortex (human APOE RNA [3]) | APOE RNA (% control) Spinal Cord (human APOE RNA [3]) | APOE RNA (% control) Cortex (human APOE RNA [4]) | APOE RNA (% control) Spinal Cord (human APOE RNA [4]) | APOE RNA (% control) Cortex (human APOE RNA [5]) | APOE RNA (% control) Spinal Cord (human APOE RNA [5])
1757572 (eA*e[5mC]eTeT*kG*kG*dT*dG[ms]dA[ms]dA[ms]dT*d[5mC]*dT*dT*dT*dA[ms]eT*eT*eA*eA; antisense) [Compound 1757572] | 51 % control | 69 % control | 114 % UTC | 95 % UTC | 107 % UTC | 96 % UTC | 83 % UTC | 67 % UTC | 66 % UTC | 51 % UTC | 26 % UTC | 10 % UTC | 5.63 | 50 % control | 38 % control | – | – | – | –
1766559 (eT*eTeGeGeT*dG[ms]dA[ms]dA[ms]dT*d[5mC]*dT*dT*dT[ms]dA[ms]dT*kTkAeA*eA*e[5mC]; antisense) [Compound 1766559] | 100 % control | 74 % control | 166 % UTC | – | 65 % UTC | 47 % UTC | 46 % UTC | 41 % UTC | 30 % UTC | 21 % UTC | 35 % UTC | 36 % UTC | 6.47 | 79 % control | 81 % control | – | – | – | –
1778110: 6-10-4 MOE gapmer ACTTGGTGAATCTTTATTAA, linkages soooosszzsssssszoss (eA*e[5mC]eTeTeGeG*dT*dG[ms]dA[ms]dA*dT*d[5mC]*dT*dT*dT*dA[ms]eTeT*eA*eA) [compound 1778110] | 81 % control | 35 % control | – | – | – | – | – | – | – | – | – | – | – | 51 % control | 51 % control | – | – | – | –
1778112 (eA*e[5mC]eTeTeGkG*dT*dG[ms]dA[ms]dA*dT*d[5mC]*dT*dT*dT*dA[ms]eTeT*eA*eA; antisense) [Compound 1778112] | 67 % control | 25 % control | – | – | – | – | – | – | – | – | – | – | – | 46 % control | 49 % control | 49 % control | 23 % control | 63 % control | 25 % control
1778113 (eA*e[5mC]eTeTkG*kG*dT*dG[ms]dA[ms]dA*dT*d[5mC]*dT*dT*dT*dA[ms]eT*eT*eA*eA; antisense) [Compound 1778113] | 61 % control | 24 % control | – | – | – | – | – | – | – | – | – | – | – | 48 % control | 88 % control | 53 % control | 28 % control | 46 % control | 27 % control
1778117 (eA*e[5mC]eTeTeG*eG*dT*dG[ms]dA[ms]dA*dT*d[5mC]*dT*dT*dT*dA[ms]kT*eT*eA*eA; antisense) [Compound 1778117] | 72 % control | 36 % control | – | – | – | – | – | – | – | – | – | – | – | 46 % control | 114 % control | 49 % control | 28 % control | 65 % control | 36 % control
1778119 (eA*e[5mC]eTeTeG*eG*dT*dG[ms]dA[ms]dA*dT*d[5mC]*dT*dT*dT*dA[ms]kTeT*eA*eA; antisense) [Compound 1778119] | 84 % control | 51 % control | – | – | – | – | – | – | – | – | – | – | – | 45 % control | 56 % control | 52 % control | 27 % control | 62 % control | 38 % control
1778120 (eA*e[5mC]eTeTeGeG*dT*dG[ms]dA[ms]dA*dT*d[5mC]*dT*dT*dT*dA[ms]kTeT*eA*eA; antisense) [Compound 1778120] | 78 % control | 44 % control | – | – | – | – | – | – | – | – | – | – | – | 47 % control | 58 % control | 57 % control | 24 % control | 75 % control | 46 % control
1778122 (eA*e[5mC]eTeTeG*eG*dT*dG[ms]dA[ms]dA*dT*d[5mC]*dT*dT*dT*dA[ms]kT*kT*eA*eA; antisense) [Compound 1778122] | 76 % control | 34 % control | – | – | – | – | – | – | – | – | – | – | – | 53 % control | 62 % control | – | – | – | –
1778126 (eA*e[5mC]eTeTkG*kG*dT*dG[ms]dA[ms]dA*dT*d[5mC]*dT*dT*dT*dA[ms]kT*eT*eA*eA; antisense) [Compound 1778126] | 52 % control | 35 % control | – | – | – | – | – | – | – | – | – | – | – | 41 % control | 72 % control | 23 % control | 20 % control | 37 % control | 22 % control
1779699 (e[5mC]*eTeT*kG*kG*eT*dG[ms]dA[ms]dA[ms]dT*d[5mC]*dT*dT*dT*dA[ms]dT*eT*eA*eA*eA; antisense) [Compound 1779699] | 53 % control | 25 % control | – | – | – | – | – | – | – | – | – | – | – | 44 % control | 54 % control | – | – | – | –
1779706 (e[5mC]*eTeTkGkG*dT[ms]dG[ms]dA[ms]dA*dT*d[5mC]*dT*dT*dT*dA*dT*eT*eA*eA*eA; antisense) [Compound 1779706] | 46 % control | 36 % control | – | – | – | – | – | – | – | – | – | – | – | 35 % control | 53 % control | – | – | – | –
1779961 (e[5mC]*eTeT*kG[ms]kG*eT*dG[ms]dA[ms]dA[ms]dT*d[5mC]*dT*dT*dT*dA[ms]dT*eT*eA*eA*eA; antisense) [Compound 1779961] | 59 % control | 26 % control | – | – | – | – | – | – | – | – | – | – | – | 39 % control | 53 % control | – | – | – | –
1785588 (k[5mC]*kT*kT*dG[ms]dG[ms]dT[ms]dG*dA*dA[ms]dT[ms]d[5mC]*dT*dT*dT*dA*dT*kT*kA*dA[ms]kA; antisense) [Compound 1785588] | 40 % control | 18 % control | – | – | – | – | – | – | – | – | – | – | – | 30 % control | 29 % control | – | – | – | –
1785589 (k[5mC]*kT*kT*dG[ms]dG[ms]dT[ms]dG*dA*dA*dT[ms]d[5mC][ms]dT*dT*dT*dA*dT*kT*kA*dA[ms]kA; antisense) [Compound 1785589] | 49 % control | 30 % control | – | – | – | – | – | – | – | – | – | – | – | 32 % control | 40 % control | – | – | – | –
1785591 (k[5mC]*kT*kT*dG[ms]dG[ms]dT[ms]dG*dA*dA*dT*d[5mC]*dT[ms]dT[ms]dT*dA*dT*kT*kA*dA[ms]kA; antisense) [Compound 1785591] | 51 % control | 42 % control | – | – | – | – | – | – | – | – | – | – | – | 37 % control | 39 % control | – | – | – | –
1785600 (k[5mC]*kT*kT*dG[ms]dG[ms]dT[ms]dG*dA*dA*dT*d[5mC]*dT[ms]dT[ms]dT[ms]dA*dT*kT*kA*dA[ms]kA; antisense) [Compound 1785600] | 60 % control | 33 % control | – | – | – | – | – | – | – | – | – | – | – | 46 % control | 51 % control | 36 % control | 26 % control | 39 % control | 30 % control
